Holding throughout (assay type): in vivo, human
Series [1] has as its system boys with Duchenne muscular dystrophy (DMD). Description: Functional sympatholysis (LBNP, NIR spectroscopy, rest vs handgrip) with PDE5 inhibition in DMD. As to conditions: for effect of chronic background medication on functional sympatholysis / functional ischemia in DMD: boys with DMD on chronic glucocorticoid or prophylactic cardiac treatment; for LBNP-induced ΔHbO2+MbO2 (% TLS) at rest / LBNP-induced ΔHbO2+MbO2 (% TLS) during handgrip: DMD, analysis using all 12 boys. How it is done:
Forearm muscle oxygenation was measured with near-infrared (NIR) spectroscopy, as previously described.^4B Briefly, optodes were placed over the belly of the flexor digitorum profundus, the main muscle recruited during handgrip. The optodes were housed in a customized flexible rubber casing, ensuring a fixed and invariant position of the optodes relative to each other, and was secured to the skin with adhesive. The optodes were covered with an optically dense, black vinyl sheet, to minimize interference from external light or loss of NIR transmitted light. The forearm was wrapped with an elastic bandage to minimize movement of the optodes.
Before each experiment, absorption and scattering coefficients were calibrated against an external standard. After each experiment, a cuff was inflated on the upper arm to supra-systolic pressure of 200 mmHg to establish the total labile signal (TLS, the difference between the baseline and nadir in muscle tissue oxygenation). Changes in forearm tissue oxygenation were expressed as a percentage of TLS.
Handgrip exercise was performed with a dynamometer (Smedley Hand Dynamometer modified by Stoelting). To determine maximal voluntary contraction (MVC), each subject was asked to grip the dynamometer as hard as possible. […] Subjects performed intermittent isometric handgrip (20 handgrips per minute, 50% duty cycle) at 20% MVC for 7 minutes.
The subjects lower body was enclosed in a negative pressure chamber to the level of the iliac crest as previously described.^9B The pressure of the chamber was measured by a Statham transducer (Gould Inc.). Lower body negative pressure (LBNP) at −20 mmHg simulates mild orthostatic stress (that is, transition from the supine to the seated position). This technique mainly unloads the cardiopulmonary baroreceptors, producing highly reproducible reflex increases in sympathetic vasoconstrictor drive to the skeletal muscle vasculature without changing systemic blood pressure.^9B
The subjects' lower body was enclosed in a negative pressure chamber to the level of the iliac crest as previously described. The pressure in the chamber was measured by a Statham transducer (Gould Inc.). Lower body negative pressure (LBNP) at −20 to −30 mmHg simulates mild orthostatic stress caused by transition from the supine to the seated position. This technique mainly unloads the low-pressure cardiopulmonary baroreceptors, producing highly reproducible reflex increases in sympathetic vasoconstrictor drive to the skeletal muscle vasculature without changing systemic blood pressure. To measure exercise-induced attenuation of reflex vasoconstriction (i.e., functional sympatholysis), the LBNP was (i) applied at rest, and then (ii) superimposed on mild rhythmic handgrip at 20% MVC. Reflex vasoconstriction was measured as the LBNP-induced decrease in forearm muscle oxygenation by NIR spectroscopy. Using the pressure inside the LBNP chamber as a trigger, the Powerlab software was programed to mean the HbO2+MbO2 signal for 20 seconds before the onset of LBNP and for 20 seconds before the offset of LBNP; the difference between these mean values was taken as the LBNP-induced change in forearm muscle tissue oxygenation (20). Blood pressure, heart rate, and handgrip force were also recorded in response to 2 minutes of LBNP applied at rest and during the third to fifth minutes of the 7-minute exercise protocol.
Patients received 0.5 mg/kg of oral sildenafil or tadalafil on day 1, followed by 1.0 mg/kg of sildenafil or tadalafil on day 2. Patients then crossed over 2 weeks later for the opposite drug. Experiments were performed 1 hour (sildenafil) or 3 hours (tadalafil) after oral treatment to match the experiment with the peak blood level. Patients were queried about potential side-effects throughout the study visit. […]

For series [2] the test system is unchanged. Description: Exercise-induced hyperemia: brachial artery blood flow by Doppler ultrasound and hemodynamics, rest and post handgrip. Also noted: key to BA velocity: mean blood velocity in cm/s; Heart rate: unit not given here. How it is done: Subjects were studied in the supine position. Heart rate was measured continuously by electrocardiography, and blood pressure measured by automated oscillometric sphygomanometry using a child's cuff ([…] Monitor 300 Series). Brachial artery mean blood velocity (MBV) was measured from the exercising arm using pulsed-Doppler ultrasonography (Siemens iE33). Data were acquired continuously with a 9-MHz probe with a 60° angle of insonation, placed on the skin surface distal to the axilla. The ultrasound gate was optimized to ensure complete insonation of the entire vessel cross-section with constant intensity. The Doppler audio signal was converted to a real-time flow velocity signal using a validated Doppler audio converter,^8B and recorded using a PowerLab data acquisition system (ADInstruments, CO). Brachial artery diameter was measured by B-mode imaging in triplicate at rest. […] Brachial artery blood flow was calculated as MBV (cm/s)·πr^2·60, where r is radius of the brachial artery. […] exercise was performed with a dynamometer ([…] Dynamometer modified by Stoelting). To determine maximal voluntary contraction (MVC), each subject was asked to grip the dynamometer as hard as possible. […] Vascular conductance was calculated as forearm blood flow divided by mean arterial pressure. […] Patients then crossed over 2 weeks later for the opposite drug. […] Patients were queried about potential side-effects throughout the study visit. Baseline characteristics of patients and controls were compared using Student's t test. Exercise-induced attenuation of reflex vasoconstriction (functional sympatholysis) was assessed by comparing the LBNP-induced AHbO2+MbO2 (% TLS) at rest versus the LBNP-induced decrease in ΔHbO2+MbO2 during handgrip. Group differences in ΔHbO2+MbO2 were assessed using a Student's t test. The drug treatment effect on LBNP-induced Δ·HbO2+MbO2 (% TLS) at rest versus the LBNP-induced decrease in ΔHbO2+MbO2 during handgrip was compared to baseline for each patient using a Student's t test. The group difference in the % Δ in brachial artery blood flow was assessed using a student's t test. The drug treatment effect on the % Δ in brachial artery blood flow was compared using a student's t test. All analyses were performed in SigmaPlot. Data are expressed as mean±SEM, unless otherwise specified.

Series [3] in a line: Pharmacokinetic study and drug blood levels in boys with DMD. The conditions noted are these: male, human, in vivo. How it is done:
Serum blood samples for pharmacokinetic determinations were collected from patients at time 0-hr, 0.25-hr, 0.5-hr, 1-hr, 2-hr, 4-hr, 8-hr, and 24-hr following each treatment (sildenafil and tadalafil) and each dose (0.5 vs. 1.0 mg/kg). Blood levels were measured with high-performance liquid chromatography-tandem mass spectrometry (NMS Labs).
Patients received 0.5 mg/kg of oral sildenafil or tadalafil on day 1, followed by 1.0 mg/kg of sildenafil or tadalafil on day 2. Patients then crossed over 2 weeks later for the opposite drug. Experiments were performed 1 hour (sildenafil) or 3 hours (tadalafil) after oral treatment to match the experiment with the peak blood level. Patients were queried about potential side-effects throughout the study visit.

Five compounds from patent publication US20160067246A1, “USE OF PHOSPHODIESTERASE 5A INHIBITORS FOR THE TREATMENT OF MUSCULAR DYSTROPHY” (CEDARS-SINAI MEDICAL CENTER, priority 2013, published 2016) can be followed below.

In the case of `CC(=O)OCC(=O)[C@@]12N=C(C)O[C@@H]1C[C@H]1[C@@H]3CCC4=CC(=O)C=C[C@]4(C)[C@H]3[C@@H](O)C[C@@]12C` [deflazacort], in series [1], the “effect of chronic background medication on functional sympatholysis / functional ischemia in DMD” value is listed as “neither prednisone nor deflazacort protects dystrophic muscle from functional ischemia”.

`NCCCC[C@H](N[C@@H](CCc1ccccc1)C(=O)O)C(=O)N1CCC[C@H]1C(=O)O` [lisinopril]: in series [1], the “effect of chronic background medication on functional sympatholysis / functional ischemia in DMD” value was “does not rescue functional sympatholysis”.

`CCCCc1nc(Cl)c(CO)n1Cc1ccc(-c2ccccc2-c2nn[nH]n2)cc1` [losartan]: the “effect of chronic background medication on functional sympatholysis / functional ischemia in DMD” value in series [1] is “does not rescue functional sympatholysis”.

Turning to `C[C@]12C=CC(=O)C=C1CC[C@@H]1[C@@H]2C(=O)C[C@@]2(C)[C@H]1CC[C@]2(O)C(=O)CO` [prednisone], the “effect of chronic background medication on functional sympatholysis / functional ischemia in DMD” value in series [1] was “neither prednisone nor deflazacort protects dystrophic muscle from functional ischemia”.

Regarding `CCCc1nn(C)c2c(=O)[nH]c(-c3cc(S(=O)(=O)N4CCN(C)CC4)ccc3OCC)nc12` [sildenafil], the “restoration of functional sympatholysis in DMD (in words)” value in series [1] (6 patients with DMD, 0.5 and 1.0 mg/kg) is given as “equally restores functional sympatholysis”. In addition, the “LBNP-induced ΔHbO2+MbO2 (% TLS) at rest” value in series [1] (0.5 mg/kg oral) is on record as −18±4%; in series [1] (1.0 mg/kg oral) it was −20±3%. Also, the “LBNP-induced ΔHbO2+MbO2 (% TLS) during handgrip” value in series [1] (0.5 mg/kg oral) was −10±3%; in series [1] (1.0 mg/kg oral), −1±3%. In addition, the “BA VC (vascular conductance)” value came to 2.3 ± 0.3 ml/min/mmHg in series [2] (0.5 mg/kg, Post-exercise); 1.7 ± 0.3 ml/min/mmHg in series [2] (0.5 mg/kg, Rest); 2.7 ± 0.3 ml/min/mmHg in series [2] (1.0 mg/kg, Post-exercise); 1.9 ± 0.3 ml/min/mmHg in series [2] (1.0 mg/kg, Rest). For the same compound, the BA blood flow in series [2] (0.5 mg/kg, Post-exercise) worked out at 172 ± 18 mL/min; in series [2] (0.5 mg/kg, Rest) it was 125 ± 19 mL/min; in series [2] (1.0 mg/kg, Post-exercise) it was 196 ± 22 mL/min; in series [2] (1.0 mg/kg, Rest), 137 ± 21 mL/min. The BA velocity was 32 ± 3 in series [2] (0.5 mg/kg, Post-exercise); 24 ± 4 in series [2] (0.5 mg/kg, Rest); 37 ± 3 in series [2] (1.0 mg/kg, Post-exercise); 27 ± 5 in series [2] (1.0 mg/kg, Rest). Also, the Heart rate in series [2] (0.5 mg/kg, Post-exercise) came to 88 ± 6; in series [2] (0.5 mg/kg, Rest), 84 ± 5; in series [2] (1.0 mg/kg, Post-exercise), 93 ± 5; in series [2] (1.0 mg/kg, Rest), 92 ± 5. Moreover, the MAP was found to be 75 ± 2 mmHg in series [2] (0.5 mg/kg, Post-exercise); 77 ± 6 mmHg in series [2] (0.5 mg/kg, Rest); 74 ± 2 mmHg in series [2] (1.0 mg/kg, Post-exercise); 74 ± 2 mmHg in series [2] (1.0 mg/kg, Rest). Further, the half-life (as a rule, the time needed for the level to fall by half in the phase considered) was 2.4 ± 0.09 h in series [3] (0.5 mg/kg) and 3.2 ± 0.5 h in series [3] (1 mg/kg). For the same compound, in series [3] (po), the “time after ingestion at which blood level had returned close to baseline” value was determined as 4 h. Moreover, the peak blood level in series [3] (po, 0.5 mg/kg) turned out to be 82.5 ± 26.6 ng/mL; in series [3] (po, 1 mg/kg) it was 167.5 ± 34.1 ng/mL.
